What all share (format): biochemical
Test [1] has as its target T1, CDK1/cyclinB1 (Homo sapiens, UniProt P06493).
T1 construct: purchased Carna Biosciences 04-102
The experiment in a line: Cyclin-dependent kinase activity assay (continuous ATP coupling assay), CDK1/cyclinB1. To be noted: CDK1/cyclinB1 10 nM, ATP 200 μM, Histone1 copeptide 100 μM, 15 min preincubation, pH 7.5, 1% DMSO. The essentials:
(§1)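 PK/LDH-coupled continuous assay, ATP at each kinase's Km, Tris pH 7.5 with 1% DMSO final; enzyme preincubated 15 min with compound (10 μM to 0.05 nM, 1:3), NADH fluorescence decrease (ex 340/em 460) gave velocities. IC50 by 4-variable fit; Ki by quadratic/Morrison fit.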

Test [2] has as its target T2, CDK2/cyclinE1 (Homo sapiens, UniProt P24941).
T2 construct: purchased Carna Biosciences 04-165
The experiment in a line: Cyclin-dependent kinase activity assay (continuous ATP coupling assay), CDK2/cyclinE1. As to conditions: CDK2/cyclinE1 5 nM, ATP 300 μM, Rb copeptide 100 μM, 15 min preincubation, pH 7.5, 1% DMSO. In a few lines:
as §1

In test [3] the target is T3, CDK4/cyclinD3 (Homo sapiens, UniProt P11802).
T3 construct: purchased Carna Biosciences 04-105
T3 sequence (P11802 whole entry): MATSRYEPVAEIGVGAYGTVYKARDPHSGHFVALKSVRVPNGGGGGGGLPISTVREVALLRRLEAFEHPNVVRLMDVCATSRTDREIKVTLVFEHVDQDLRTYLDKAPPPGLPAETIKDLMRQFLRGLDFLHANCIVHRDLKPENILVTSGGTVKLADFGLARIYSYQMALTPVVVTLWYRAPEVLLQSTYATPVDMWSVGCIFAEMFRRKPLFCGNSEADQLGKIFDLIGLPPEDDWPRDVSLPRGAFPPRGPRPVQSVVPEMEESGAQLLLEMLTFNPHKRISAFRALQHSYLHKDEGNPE
T3 sequence (P30281 whole entry partner): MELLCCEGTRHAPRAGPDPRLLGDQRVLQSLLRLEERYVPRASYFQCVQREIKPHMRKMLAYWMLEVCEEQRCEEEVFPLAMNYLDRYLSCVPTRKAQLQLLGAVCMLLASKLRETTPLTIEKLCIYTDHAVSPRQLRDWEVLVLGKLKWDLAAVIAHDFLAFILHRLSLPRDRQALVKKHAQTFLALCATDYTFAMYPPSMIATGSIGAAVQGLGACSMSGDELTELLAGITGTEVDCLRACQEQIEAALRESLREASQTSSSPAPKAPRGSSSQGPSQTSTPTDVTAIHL
The experiment in a line: Cyclin-dependent kinase activity assay (continuous ATP coupling assay), CDK4/cyclinD3. As to conditions: CDK4/cyclinD3 60 nM, ATP 500 μM, Rb copeptide 500 μM, 15 min preincubation, pH 7.5, 1% DMSO. The essentials: as §1

Test [4] addresses T4, CDK6/cyclinD3 (Homo sapiens, UniProt Q00534).
T4 construct: purchased Carna Biosciences 04-107
The experiment in a line: Cyclin-dependent kinase activity assay (continuous ATP coupling assay), CDK6/cyclinD3. As to conditions: CDK6/cyclinD3 25 nM, ATP 500 μM, Rb copeptide 500 μM, 15 min preincubation, pH 7.5, 1% DMSO. In a few lines: as §1

In patent publication US20260308145A1, “CDK2 INHIBITORS AND METHODS OF USING SAME” (Shenzhen lonova Life Science Co., Ltd., priority 2023, published 2026) one finds IC50 data, which are given here for 11 compounds.

T1 sequence (P06493 whole entry): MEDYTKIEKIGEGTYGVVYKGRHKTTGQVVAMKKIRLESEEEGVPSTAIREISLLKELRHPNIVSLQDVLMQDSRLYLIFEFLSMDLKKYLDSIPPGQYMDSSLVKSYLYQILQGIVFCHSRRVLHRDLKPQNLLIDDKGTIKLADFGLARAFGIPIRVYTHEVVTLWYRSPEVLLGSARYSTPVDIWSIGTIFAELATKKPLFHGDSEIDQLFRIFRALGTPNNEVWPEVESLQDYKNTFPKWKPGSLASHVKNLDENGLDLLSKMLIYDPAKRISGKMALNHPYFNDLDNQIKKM
T1 sequence (P14635 whole entry partner): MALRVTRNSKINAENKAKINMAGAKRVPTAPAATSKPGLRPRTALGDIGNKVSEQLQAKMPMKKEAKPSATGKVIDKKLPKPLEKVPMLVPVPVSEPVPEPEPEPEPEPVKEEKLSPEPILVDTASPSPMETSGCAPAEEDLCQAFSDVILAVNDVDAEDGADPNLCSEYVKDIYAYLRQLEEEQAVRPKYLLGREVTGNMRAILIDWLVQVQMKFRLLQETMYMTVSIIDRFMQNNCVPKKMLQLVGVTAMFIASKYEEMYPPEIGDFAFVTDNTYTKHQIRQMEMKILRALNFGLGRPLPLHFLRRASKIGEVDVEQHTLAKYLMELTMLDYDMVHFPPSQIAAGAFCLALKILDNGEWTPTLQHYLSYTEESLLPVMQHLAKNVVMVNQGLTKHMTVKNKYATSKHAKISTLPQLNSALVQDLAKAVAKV
T4 sequence (Q00534 whole entry): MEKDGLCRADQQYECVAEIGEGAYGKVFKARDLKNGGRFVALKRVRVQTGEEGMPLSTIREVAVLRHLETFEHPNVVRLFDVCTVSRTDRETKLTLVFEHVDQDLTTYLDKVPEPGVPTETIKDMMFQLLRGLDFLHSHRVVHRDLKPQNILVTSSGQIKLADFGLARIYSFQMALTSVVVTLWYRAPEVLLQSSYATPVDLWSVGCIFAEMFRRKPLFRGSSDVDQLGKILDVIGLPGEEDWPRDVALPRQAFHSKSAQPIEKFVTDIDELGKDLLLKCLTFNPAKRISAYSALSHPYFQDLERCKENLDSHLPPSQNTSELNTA
T4 sequence (P30281 whole entry partner): as the sequence (P30281 whole entry partner) above

For `O=C(O)CNS(=O)(=O)c1ccc(Nc2ncc(C(F)(F)F)c(-n3cccn3)n2)cc1` [Example 138, ((4-((4-(1H-pyrazol-1-yl)-5-(trifluoromethyl)pyrimidin-2-yl)amino)phenyl)sulfonyl)glycine], the concentration for half-maximal inhibition (IC50) is not below 0.1 µM in test [1], not above 0.01 µM in test [2], not below 0.1 µM in test [3] and not below 0.1 µM in test [4].
Consider `CNS(=O)(=O)c1ccc(Nc2ncc(C(F)(F)F)c(-n3cc(C4CC4)cn3)n2)cc1` [Example 50], for which the IC50 in test [1] is not below 0.1 µM; in test [2], not above 0.01 µM; in test [3], 0.01 to 0.1 µM; in test [4], 0.01 to 0.1 µM.
In the case of `O=S(=O)(NCCO)c1ccc(Nc2ncc(C(F)(F)F)c(-n3cccn3)n2)cc1` [Example 36, 4-((4-(1H-pyrazol-1-yl)-5-(trifluoromethyl)pyrimidin-2-yl)amino)-N-(2-hydroxyethyl) benzene sulfonamide], the IC50 in test [1] was 0.01 to 0.1 µM; in test [2], not above 0.01 µM; in test [3], not below 0.1 µM; in test [4], not below 0.1 µM.
On to `CNS(=O)(=O)c1ccc(Nc2ncc(C(F)(F)F)c(-n3cc(C4CCC4)cn3)n2)cc1` [Example 101], for which the IC50 is not below 0.1 µM in test [1], 0.01 to 0.1 µM in test [2], not below 0.1 µM in test [3] and not below 0.1 µM in test [4].
`CNS(=O)(=O)c1ccc(Nc2nccc(-n3cc(CC(C)(C)O)cn3)n2)cc1` [Example 67]: the IC50 in test [1] is not below 0.1 µM; in test [2] it was 0.01 to 0.1 µM; in test [3], not below 0.1 µM; in test [4], not below 0.1 µM.
On to `CNS(=O)(=O)c1ccc(Nc2nccc(-n3cccn3)n2)cc1` [Example 23], for which the IC50 in test [1], in test [2], in test [3] and in test [4] was not below 0.1 µM in each case.
As to `CNS(=O)(=O)c1ccc(Nc2ncc(C#N)c(-n3cc(CC(C)(C)O)cn3)n2)cc1` [Example 64], the 50% inhibitory concentration (IC50) in test [1] was not below 0.1 µM; in test [2], not above 0.01 µM; in test [3], 0.01 to 0.1 µM; in test [4] it was 0.01 to 0.1 µM.
Consider `CNS(=O)(=O)c1ccc(Nc2ncc(C(F)(F)F)c(-n3cc(C4CCN(C(C)C)CC4)cn3)n2)cc1` [Example 82], for which the half-maximal inhibitory concentration (IC50) in test [1] is 0.01 to 0.1 µM; in test [2] it was not above 0.01 µM; in test [3], 0.01 to 0.1 µM; in test [4] it was not below 0.1 µM.
`CNS(=O)(=O)c1ccc(Nc2ncc(C(F)(F)F)c(-n3cc(C4CCNCC4)cn3)n2)cc1` [Example 13]: the concentration for half-maximal inhibition (IC50) in test [1] is 0.01 to 0.1 µM; in test [2] it was not above 0.01 µM; in test [3], 0.01 to 0.1 µM; in test [4] it was 0.01 to 0.1 µM.
`CNS(=O)(=O)c1ccc(Nc2ncc(C(F)(F)F)c(-n3cc([C@@H]4CC[C@@H](O)C4)cn3)n2)cc1` (single isomer, unassigned) [Example 78]: the IC50 in test [1] was not below 0.1 µM; in test [2], not above 0.01 µM; in test [3] it was 0.01 to 0.1 µM; in test [4], 0.01 to 0.1 µM.
As to `CNS(=O)(=O)c1ccc(Nc2ncc(C(F)(F)F)c(-n3ccc(CC(C)(C)O)n3)n2)cc1` [Example 4], the IC50 in test [1] is not below 0.1 µM; in test [2], 0.01 to 0.1 µM; in test [3], not below 0.1 µM; in test [4] it was not below 0.1 µM.
